Test results: patent publication US20250313653A1, “GUEST/HOST INCLUSION COMPLEXES CONTAINING S-NITROSOGLUTATHIONE AND METHODS OF USE THEREOF” (VIRGINIA COMMONWEALTH UNIVERSITY, priority 2022, published 2025)
Where “and” joins values, the source holds several entries; their conditions need not be identical. Equal values may be shown once. Entries after “also recorded” stand apart in the source; their conditions may differ.

Experiments:
[1] = GSNO thermal decomposition via UV-Vis absorption spectroscopy; assay type: physicochemical; settings: for stabilization effect on GSNO (remaining GSNO after 48 h): 2-day experiment, 0.05 M GSNO in 0.05 M PB with 0.1 M CD derivative, dark, 37° C.; for order of enhancement of GSNO stability (reduced decomposition reactivity) by the host CD: 0.1 M GSNO solution containing 0.1 M CD, pH 7.4, 37° C.
Description: GSNO was synthesized by nitrosation of reduced L-glutathione in acidified nitrite as previously reported.^52 After collecting GSNO precipitates and washing them using cold water and acetone, GSNO powder was vacuum dried for 4 h and stored at −20° C. GSNO powders were dissolved in phosphate buffer (PB) containing the same mole of Na2HPO4 before the pH adjustment. For example, the formal concentration of Na2HPO4 is 0.1 M when the GSNO concentration is 0.1 M. One hundred μM EDTA was always added to each solution before the solution pH was finally adjusted to 7.4 via NaOH. EDTA is a chelating agent to mask Cu^2+, a S-nitrosothiol catalyst that may exist in solvents and chemicals as an impurity.^53 For solutions with reactive agents, BSA, ascorbic acid, or cysteine was added before the pH adjustment. To prepare GSNO-CD solutions, appropriate amounts of CD powders were dissolved into the GSNO solutions prior to the pH adjustment.
Aqueous GSNO solutions were contained in 1.5 mL disposable polystyrene cuvettes. The cuvette was caped and further sealed with parafilm. The concentrations of GSNO during storage at 37° C. or 25° C. in the dark were monitored by a UV-vis spectrophotometer (Go Direct® Fluorescence/UV-VIS Spectrophotometer) at a wavelength of 545 nm. A 4 W LED white light was used as the light source for the photodecomposition experiment at room temperature. The distance between the light source and the cuvettes was approximately 10 cm. All GSNO decomposition experiments were triplicated, and the GSNO concentration was expressed as mean±standard deviation.

[2] = in water; cited from earlier work
fibroblast L929 cells = assay: Cytotoxicity test (MTS assay) of lock-solution-filled silicone tubes; assay type: cell-based, mouse; settings: 24-h incubation of L929 cells with silicone tubes filled with the lock solution
Description: L929 murine fibroblast cells were suspended in complete media (DMEM with 1% penicillin/streptomycin and 10% FBS) before being seeded in a 24-well plate at a concentration of 5×10^5 cells per well. After 24 h of incubation, the attached cells in each well were incubated in fresh media containing a sterilized 1-cm silicone tube (HelixMark® 60-011-07) filled with a lock solution with buffer, GSNO, or GSNO-αCD and with both ends sealed. MTS assays were performed following the manufacturer's procedure after an additional 24-h incubation. Absorbance at 490 nm was measured by a Cytation 3 imaging plate reader (Biotek).

Compound | stabilization effect on GSNO (remaining GSNO after 48 h) [1] | order of enhancement of GSNO stability (reduced decomposition reactivity) by the host CD [1] | further results
2-hydroxypropyl alpha cyclodextrin [2-hydroxypropyl αCD] | significant stabilization effect | – | –
CC(=O)N[C@H](C(=O)O)C(C)(C)SN=O (racemic) [S-Nitroso-N-acetylpenicillamine] | – | – | aqueous solubility [2]: 2.1 mg/mL and < 0.01 M
CC(O)COC[C@H]1O[C@@H]2O[C@H]3[C@H](O)[C@@H](O)[C@@H](O[C@H]4[C@H](O)[C@@H](O)[C@@H](O[C@H]5[C@H](O)[C@@H](O)[C@@H](O[C@H]6[C@H](O)[C@@H](O)[C@@H](O[C@H]7[C@H](O)[C@@H](O)[C@@H](O[C@H]8[C@H](O)[C@@H](O)[C@@H](O[C@H]1[C@H](O)[C@H]2O)O[C@@H]8COCC(C)O)O[C@@H]7COCC(C)O)O[C@@H]6COCC(C)O)O[C@@H]5COCC(C)O)O[C@@H]4COCC(C)O)O[C@@H]3COCC(C)O (stereo partly drawn) [HP βCD, 2-hydroxypropyl βCD] | – | αCD>γCD>HP βCD | order of enhancement of GSNO stability (reduced decomposition reactivity) by the host CD ([1]; listed as hydroxypropyl βCD): αCD>γCD>hydroxypropyl βCD
OC[C@H]1O[C@@H]2O[C@H]3[C@H](O)[C@@H](O)[C@@H](O[C@H]4[C@H](O)[C@@H](O)[C@@H](O[C@H]5[C@H](O)[C@@H](O)[C@@H](O[C@H]6[C@H](O)[C@@H](O)[C@@H](O[C@H]7[C@H](O)[C@@H](O)[C@@H](O[C@H]1[C@H](O)[C@H]2O)O[C@@H]7CO)O[C@@H]6CO)O[C@@H]5CO)O[C@@H]4CO)O[C@@H]3CO [αCD, alpha cyclodextrin] | best | αCD>γCD>hydroxypropyl βCD; also recorded: αCD>γCD>HP βCD | cytotoxicity / cell viability (MTS) (fibroblast L929 cells): no difference in the cell viability
OC[C@H]1O[C@@H]2O[C@H]3[C@H](O)[C@@H](O)[C@@H](O[C@H]4[C@H](O)[C@@H](O)[C@@H](O[C@H]5[C@H](O)[C@@H](O)[C@@H](O[C@H]6[C@H](O)[C@@H](O)[C@@H](O[C@H]7[C@H](O)[C@@H](O)[C@@H](O[C@H]8[C@H](O)[C@@H](O)[C@@H](O[C@H]9[C@H](O)[C@@H](O)[C@@H](O[C@H]1[C@H](O)[C@H]2O)O[C@@H]9CO)O[C@@H]8CO)O[C@@H]7CO)O[C@@H]6CO)O[C@@H]5CO)O[C@@H]4CO)O[C@@H]3CO [γCD, gamma cyclodextrin] | – | αCD>γCD>hydroxypropyl βCD; also recorded: αCD>γCD>HP βCD | –
methyl alpha cyclodextrin [methyl αCD] | significant stabilization effect | – | –
